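Five compound concentrations were applied to cells in 96-well plates for 48 hours; endpoints were derived by simple linear interpolation of the resulting dose-response curve. Abbreviation: GI50, concentration required for 50% inhibition of growth.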 Active and inactive are the calls of the source. No stated cut-off is given here; in the data, active = GI50 up to about 1.1 µM and inactive = higher.
Key:
Assay in all cases: inhibition of tumour cell growth, NCI panel, 48 h
HT-29 = system: HT-29
M14 = system: M14
NCI-H226 = system: NCI-H226
OVCAR-4 = system: OVCAR-4
OVCAR-3 = system: OVCAR-3
HCC 2998 = system: HCC 2998
HOP-62 = system: HOP-62
IGROV-1 = system: IGROV-1
UACC-257 = system: UACC-257
MOLT-4 = system: MOLT-4
CCRF-CEM = system: CCRF-CEM
HCT-116 = system: HCT-116
U-251 = system: U-251
SF-539 = system: SF-539
SW-620 = system: SW-620
UO-31 = system: UO-31
NCI-H460 = system: NCI-H460
RXF 393 = system: RXF 393
SK-MEL-2 = system: SK-MEL-2

Measured: GI50

CCCCCCCCCCCCCC(=O)OCC1OC(=O)C(O)C1O (stereo not drawn)
inactive: HT-29 > 100 µM | M14 > 100 µM | NCI-H226 > 100 µM | OVCAR-4 > 100 µM | OVCAR-3 > 100 µM | HCC 2998 > 100 µM | HOP-62 > 100 µM | IGROV-1 > 100 µM | UACC-257 > 100 µM | MOLT-4 > 100 µM | CCRF-CEM > 100 µM | HCT-116 > 100 µM | U-251 > 100 µM | SF-539 > 100 µM | SW-620 > 100 µM | UO-31 > 100 µM

Nc1nc(-c2ccccc2)cc(-c2cc(Cl)ccc2O)n1
inactive: NCI-H460 43.9 µM | HT-29 > 100 µM | M14 > 100 µM | NCI-H226 > 100 µM | OVCAR-4 63.8 µM | OVCAR-3 35.7 µM | HCC 2998 > 100 µM | HOP-62 29.1 µM | IGROV-1 49.3 µM | UACC-257 > 100 µM | MOLT-4 > 100 µM | CCRF-CEM > 100 µM | HCT-116 39.7 µM | U-251 35.6 µM | SF-539 31.6 µM | RXF 393 64.3 µM | SW-620 > 100 µM | UO-31 39.9 µM

COc1ccc(/C=C(\Cl)c2ccc(OC)cc2)cc1
inactive: NCI-H460 > 100 µM | M14 > 100 µM | NCI-H226 > 100 µM | OVCAR-4 > 100 µM | OVCAR-3 > 100 µM | HCC 2998 > 100 µM | HOP-62 > 100 µM | UACC-257 > 100 µM | MOLT-4 > 100 µM | CCRF-CEM > 100 µM | HCT-116 > 100 µM | U-251 > 100 µM | SF-539 > 100 µM | SW-620 > 100 µM | UO-31 > 100 µM

C[P+]1(Cc2ccccc2)CCCC1
inactive: NCI-H460 > 100 µM | HT-29 > 100 µM | M14 > 100 µM | NCI-H226 > 100 µM | SK-MEL-2 > 100 µM | OVCAR-3 > 100 µM | HCC 2998 71.1 µM | HOP-62 > 100 µM | IGROV-1 > 100 µM | UACC-257 > 100 µM | MOLT-4 > 100 µM | CCRF-CEM > 100 µM | HCT-116 > 100 µM | U-251 > 100 µM | SF-539 > 100 µM | RXF 393 > 100 µM | SW-620 > 100 µM | UO-31 > 100 µM

O=C(COc1ccc(Cl)cc1)N1N=C(c2ccc(Cl)cc2)CC1(O)c1ccccc1 (stereo not drawn)
inactive: NCI-H460 15.2 µM | HT-29 12.9 µM | M14 18.1 µM | NCI-H226 22.3 µM | OVCAR-4 7.48 µM | SK-MEL-2 24.3 µM | OVCAR-3 16.3 µM | HCC 2998 > 37.2 µM | HOP-62 23.4 µM | IGROV-1 18.5 µM | UACC-257 15.8 µM | MOLT-4 4.95 µM | CCRF-CEM 16.7 µM | HCT-116 12.6 µM | U-251 16.7 µM | SF-539 24.8 µM | SW-620 21.2 µM | UO-31 > 23.7 µM

NC(=S)N/N=C(/CC(=O)c1ccc([N+](=O)[O-])cc1)C(=O)Nc1ncc([N+](=O)[O-])s1
inactive: NCI-H460 > 100 µM | HT-29 > 100 µM | M14 > 100 µM | NCI-H226 > 100 µM | OVCAR-4 > 100 µM | SK-MEL-2 > 100 µM | OVCAR-3 > 100 µM | HCC 2998 > 100 µM | HOP-62 > 100 µM | IGROV-1 > 100 µM | UACC-257 > 100 µM | MOLT-4 30.7 µM | CCRF-CEM 82.4 µM | HCT-116 > 100 µM | U-251 > 100 µM | RXF 393 > 100 µM | SW-620 > 100 µM | UO-31 > 100 µM

C[N+]1=c2c3cccc4cccc(c(=O)n2CC1)c43
inactive: NCI-H460 11.5 µM | HT-29 16.8 µM | M14 14.9 µM | NCI-H226 13.1 µM | OVCAR-4 17.6 µM | SK-MEL-2 19.6 µM | OVCAR-3 25.7 µM | HOP-62 22 µM | IGROV-1 21.9 µM | UACC-257 16.1 µM | MOLT-4 3.37 µM | CCRF-CEM 11.6 µM | HCT-116 4.68 µM | U-251 28.6 µM | SF-539 14.6 µM | RXF 393 11.4 µM | SW-620 11 µM | UO-31 12.3 µM

O=C1C=CC(=O)N1Nc1ccc([N+](=O)[O-])cc1[N+](=O)[O-]
inactive: NCI-H460 > 100 µM | HT-29 > 71.4 µM | M14 19.9 µM | NCI-H226 97.1 µM | OVCAR-4 > 42.3 µM | SK-MEL-2 > 100 µM | OVCAR-3 98.4 µM | HCC 2998 > 100 µM | HOP-62 > 100 µM | IGROV-1 > 100 µM | UACC-257 > 56.2 µM | MOLT-4 33.3 µM | CCRF-CEM 14 µM | HCT-116 > 100 µM | U-251 > 100 µM | SF-539 > 100 µM | SW-620 > 67.3 µM | UO-31 > 100 µM

Cn1c2c(c3ccccc31)C1C(=O)N(c3ccccc3)C(=O)C1CC2 (stereo not drawn)
inactive: NCI-H460 > 303 µM | HT-29 > 303 µM | NCI-H226 85.5 µM | SK-MEL-2 > 303 µM | OVCAR-3 123 µM | HCC 2998 > 303 µM | HOP-62 > 303 µM | IGROV-1 > 303 µM | UACC-257 > 303 µM | MOLT-4 > 303 µM | CCRF-CEM > 303 µM | HCT-116 294 µM | U-251 > 303 µM | SF-539 > 303 µM | RXF 393 > 303 µM | SW-620 > 303 µM

O=C(O)c1cc(=O)c2c([nH]c3ccccc32)s1
inactive: NCI-H460 > 100 µM | M14 > 100 µM | OVCAR-4 > 100 µM | SK-MEL-2 > 100 µM | OVCAR-3 > 100 µM | HCC 2998 > 100 µM | HOP-62 > 100 µM | IGROV-1 > 100 µM | UACC-257 > 100 µM | MOLT-4 > 100 µM | CCRF-CEM > 100 µM | RXF 393 > 100 µM | SW-620 > 100 µM | UO-31 > 100 µM

CC(C)CN(CC(C)C)C(=O)C1CCCC[C@@H]1C(=O)O (stereo partly drawn)
inactive: NCI-H460 > 100 µM | HT-29 > 100 µM | M14 > 100 µM | NCI-H226 > 100 µM | OVCAR-4 > 100 µM | SK-MEL-2 > 100 µM | OVCAR-3 > 100 µM | HCC 2998 > 100 µM | HOP-62 > 100 µM | IGROV-1 > 100 µM | UACC-257 > 100 µM | MOLT-4 > 100 µM | CCRF-CEM > 100 µM | HCT-116 > 100 µM | U-251 > 100 µM | SF-539 > 100 µM | SW-620 > 100 µM | UO-31 > 100 µM

Nc1ccccc1/C=C\c1ccccc1
inactive: NCI-H460 > 100 µM | HT-29 > 100 µM | M14 > 100 µM | NCI-H226 > 100 µM | OVCAR-3 > 100 µM | HOP-62 > 100 µM | IGROV-1 > 100 µM | UACC-257 > 100 µM | MOLT-4 > 100 µM | CCRF-CEM > 100 µM | HCT-116 > 100 µM | U-251 > 100 µM | SF-539 > 100 µM | RXF 393 > 100 µM | SW-620 > 100 µM | UO-31 > 100 µM

Source: ChEMBL document CHEMBL1201862, “PubChem BioAssay data set” (2004)
